The results in this text go back to patent US6258790A, “Antisense modulation of integrin α4 expression” (Isis Pharmaceuticals, Inc., priority 1999, dated 2001).

Data set [1] deals with leukocyte trafficking into the central nervous system of EAE mice. The experiment in a line: Reduction of leukocyte trafficking into the central nervous system of EAE mice (immunostaining of sections). In kind it is in vivo, mouse (CSJLF1). As to the method: The pieces were embedded in O.C.T. tissue freezing medium (Ted Pella Inc., Redding, Calif.) on dry ice and methylbutane. Four-micron frozen sections were cut and air dried overnight. The sections were fixed for three minutes in ice-cold acetone and then placed on a Dako Autostainer (Dako Corporation, Carpinteria, Calif.) and treated in the following steps: 5 minutes in 0.03% H2 O2, 5 minutes in 5% donkey serum diluted in PBS, 45 minutes in appropriately diluted primary antibody, 30 minutes in horseradish peroxidase-labeled donkey anti-rat secondary antibody (Jackson Laboratory, Bar Harbor, Me.). Sections were rinsed between treatments with PBS. All the antibodies used were rat anti-mouse from PharMingen (San Diego, Calif.), except BM-8, which was from Bachem Bioscience Inc. (King of Prussia, Pa.). The immunostaining was developed with DAB (Dako Corporation) and counterstained with hematoxylin.

Another data set concerns murine integrin α4. The experiment in a line: Antisense inhibition of murine integrin α4 protein expression in IC-21 macrophage cells (flow cytometry, CD49d-PE). The class given is cell-based, mouse. Conditions: for % Control / % Inhib.: Table 16. A digest of the protocol: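 Murine IC-21 macrophages were transfected with 2'-MOE/deoxy chimeric oligonucleotides (5-methylcytosines) at 0.2-50 nM or 0.3, 1, 3, 10, 30 nM with 3 ug/ml LIPOFECTIN for 4 h. After 24 h, cells were harvested and integrin α4 was measured by flow cytometry with 2 ug/ml CD49d-PE (rat IgG2B control). Triplicate wells were used.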

Data set [2] relates to A375 melanoma cell adherence to HUVEC. The experiment in a line: Adherence of A375 melanoma cells to HUVEC (flow cytometry). Conditions: 10 μM; compared to TNF treated control. The class given is cell-based, human. As for the experimental part: Human umbilical vein endothelial cells (HUVEC) (Clonetics, San Diego Calif.) were cultured in EGM-UV medium (Clonetics)and treated with TNFA for 20 hours to induce VCAM expression. A375 melanoma cells were electroporated with ISIS 107248 as described above. Using antibody to PECAM, a specific marker for endothelial cells, flow cytometry was used to quantitate the inhibition of adherence of A375 melanoma cells to HUVECs. Compared to control (TNF treated, no oligonucleotide), ISIS 107248 (10 μM) inhibited A375 melanoma cell adherence to HUVEC by approximately 85%. An antibody to integrin α4 inhibited adherence by approximately 72%. Melanoma cells represent a clinically relevant model because a statistically significant correlation has been shown between increased expression of VLA-4 expression(of which integrin α4 is one member) and time to progression and overall survival time of patients with melanoma. Schadendorf et al., J. Natl. Cancer Inst., 1995, 87, 366-371.

The test system of another data set is human integrin α4. In words: Integrin α4 protein expression in A375 cells after electroporation of oligonucleotide (flow cytometry). The class given is cell-based. A digest of the protocol:
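Cells electroporated (175 V, 1×10^6 cells/ml in Opti-MEM) with oligonucleotide at 1, 3, 10 and 30 μM. Harvested 24 h later, stained with 2 ug/ml CD49d-FITC and analysed by flow cytometry.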
For orientation: In flow cytometry, cells or beads pass a laser one at a time.

For “17044 (CCGCAGCCATGCGCTCTTGG; phosphorothioate, 2'-MOE/deoxy, further chemistry not given here) [compound 17044]”, in data set [1] (1 mg/kg), the “leukocyte trafficking into the spinal cords and brains” value was “reduce leukocyte trafficking into the spinal cords and brains”. In addition, in data set [1] (EAE experiment 4), the “reduction of leukocyte influx into the central nervous system, 1.0 vs 0.1 mg/kg” value is “dose-dependent effect with 1.0 mg/kg of 17044 causing a greater reduction of leukocyte influx into the central nervous system than did 0.1 mg/kg 17044”. In data set [1] (one experiment, EAE mice), the “CD4+T cells in the central nervous system” value is reported as “virtually eliminated”. Also, the “leukocyte trafficking as measured by expression of VLA-4, CD4, BM-8 and CD18” value in data set [1] (preliminary experiments, 1 mg/kg) was “significantly reduced”. In addition, the “reduction of integrin α4 expression” value with murine integrin α4 (Example 14) was “reduce integrin α4 expression to below starting levels”. The “% Control” value in the data set with murine integrin α4 (0.3 nM) is 100%; in the data set with murine integrin α4 (1 nM), 81%; in the data set with murine integrin α4 (3 nM), 32%; with murine integrin α4 (10 nM), -9%. Also, the “% Inhib.” value was 0% in the data set with murine integrin α4 (0.3 nM), 19% with murine integrin α4 (1 nM), 68% in the data set with murine integrin α4 (3 nM) and > 100% with murine integrin α4 (10 nM).
With “107248 (antisense CTGAGTCTGTTTTCCATTCT; chemistry not given here) [compound 107248]”, in data set [2], the “inhibition of A375 melanoma cell adherence to HUVEC” value is recorded as “approximately 85%”. The “% Control” value in the data set with human integrin α4 (Table 25, 1 nM as printed, 24 hours) stood at 9.1%; in the data set with human integrin α4 (Table 25, 10 nM, 24 hours), 23.2%; in the data set with human integrin α4 (Table 25, 30 nM, 24 hours), 52.1%; in the data set with human integrin α4 (Table 26, 1 μM) it was 52.1%; with human integrin α4 (Table 26, 3 μM), 17.4%; in the data set on human integrin α4 (Table 26, 10 μM) it was 7.9%. In addition, in the data set with human integrin α4 (Table 26, 30 μM), the “% Control” value is listed as 2.9%. Further, the “% Inhib.” value is 47.9% in the data set with human integrin α4 (Table 26, 1 μM); 82.6% in the data set on human integrin α4 (Table 26, 3 μM); 92.1% in the data set with human integrin α4 (Table 26, 10 μM); 97.1% with human integrin α4 (Table 26, 30 μM).
